Drawing on the METLIN SMRT retention time set (Domingo-Almenara et al. 2019), this text covers RP-LC retention time for 59 compounds.

The data set is described as follows: gradient 5% acetonitrile 3 min, to 50% in 2 min, to 85% in 15 min, held 3 min, 100 µL/min. As to conditions: column: Zorbax Extend-C18 2.1 x 50 mm; eluents: water / acetonitrile, 0.1% formic acid. The essentials:
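The system's dead and dwell volumes were 40 μL and 900 μL, with a Zorbax Extend-C18 column (2.1 × 50 mm, 1.8 μm) run at 100 μL/min in water and acetonitrile containing 0.1% formic acid each. Pure standards were analyzed in mixtures of ~100 molecules by HPLC–quadrupole time-of-flight mass spectrometry in positive and negative ionization mode. Retention time was assigned from computationally picked, manually inspected adduct peaks.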
For the compound `COc1ccc(CN2CCC(NC(=O)c3ccc(C#N)cc3)C2)cn1` (centres undefined), the RP-LC retention time was found to be 566 s.
On to `Cc1ccc(C)c(-c2csc(Nc3ccc(S(=O)(=O)Nc4nc(C)cc(C)n4)cc3)n2)c1`, for which the RP-LC retention time amounted to 1030 s.
The result for `CC(NS(=O)(=O)c1cccc(Cl)c1)C(=O)Nc1ccc(Br)cc1F` (centres undefined) reads 912 s; that for `COCC(=O)Nc1ccc(N2CCC(N3CCCCC3)CC2)cc1C(=O)O`, 654 s; that for `O=C(NC(Cc1ccccc1)c1nnc(N2CCSCC2)o1)C1CCCC1` (centres undefined), 806 s.
The result for `CCSc1nnc(-c2nn(C)c3c2CN(S(=O)(=O)c2cc(F)ccc2C)CC3)n1CC` reads 988 s; that for `CCCn1cnc2cc(CNC(=O)c3ccc(C(C)(C)C)cc3)ccc21`, 720 s.
Next, `CC1CCCCN1S(=O)(=O)c1ccc2nc(N3CCN(c4ccccc4)CC3)ccc2c1` (centres undefined): 1100 s.
`O=C(c1cc2ccccc2o1)N1CC(c2nc(-c3cccnc3)no2)C1` showed an RP-LC retention time of 709 s.
Take `COc1ccccc1CNc1ccc(-c2nc(-c3ccc(F)cc3)no2)cn1`: the RP-LC retention time is 1220 s.
In turn, `COc1cccc(-c2noc(Cc3nnc(-c4cccc(Cl)c4)o3)n2)c1OC` returned an RP-LC retention time of 1000 s.
The result for `COc1ccc(C)cc1NC(=O)c1cc(C)n2nccc2n1` reads 1050 s; that for `COc1ccc2c(c1[N+](=O)[O-])CC[C@@H]1[C@@H]2CC[C@]2(C)C(=O)CC[C@@H]12`, 1050 s; that for `CCC1CN2C=Nc3oc(C)c(C(=O)NCCc4ccc(OC)c(OC)c4)c3C2=N1` (centres undefined), 645 s.
The result for `O=C(Nc1nc2ccccc2s1)c1ccc(S(=O)(=O)N2CCc3ccccc32)cc1` reads 1040 s; that for `CCn1ncn2cc(S(=O)(=O)NCc3ccccc3)cc2c1=O`, 800 s.
As for `COC(=O)c1sc(-c2ccccc2)cc1NC(=O)c1ccccc1[N+](=O)[O-]`, the RP-LC retention time worked out at 1110 s.
The result for `COc1cc2c(cc1O)[C@@H](Cc1ccc(O)c(Oc3ccc(C[C@@H]4c5cc(OC)c(OC)cc5CCN4C)cc3)c1)N(C)CC2` reads 639 s; that for `CCN1CCn2cc(S(=O)(=O)Nc3ccc(Cl)cc3)cc2C1=O`, 766 s; that for `O=C(c1n[nH]c2c1CCCC2)N1CCC2(CC1)N=C(c1ccccc1)NO2`, 698 s.
Next, `CC1=NS(=O)(=O)N(C)C=C1C(=O)OCc1ccccc1Cl`: 951 s; `COc1cccc(-c2noc(Cc3nnc(-c4cccc(F)c4)o3)n2)c1OC`: 934 s; `CC(C)c1noc(-c2ccn3c(CC(=O)N4CCSCC4)nnc3c2)n1`: 726 s.
The result for `COc1cc(=O)n2c(c1C(=O)Nc1ccc3c(c1)OCCO3)CCCC2` reads 647 s; that for `CCOC(=O)C1CCN(c2nc(=O)n(CC(=O)Nc3ccccc3C)c3ccccc23)CC1`, 790 s.
The compound `O=C(c1ccoc1)N1CCc2c(c(CO)nn2Cc2ccccc2)C1` displayed an RP-LC retention time of 659 s.
`N#Cc1ccc(N2C=C(C(=O)N3CCCC3)S(=O)(=O)c3ccc(Cl)cc32)cc1`: the RP-LC retention time is 799 s.
The result for `CCOc1ccc(N(C)C(=O)C2CCN(S(=O)(=O)c3ccc4c(c3)NC(=O)CO4)CC2)cc1` reads 784 s.
The result for `CCOc1ccc(N2CC(c3nnc(NC(=O)Cc4ccc(Cl)cc4)o3)CC2=O)cc1` (centres undefined) reads 796 s; that for `CN1C(=O)[C@H]2CN(Cc3ccc(OC(F)(F)F)cc3)C[C@H]2C1=O`, 666 s; that for `Cc1ccc(-c2cn3c(CC(=O)N4c5ccccc5CC4C)csc3n2)cc1C` (centres undefined), 965 s.
Next, `O=C(CCC1CCN(S(=O)(=O)c2ccccc2)CC1)NC1CCCC1`: 852 s.
In turn, `COc1cncc(C(=O)Nc2cc(F)cc(F)c2)c1` showed an RP-LC retention time of 797 s.
Next, `CCOc1ccc(NC(=O)Nc2nccn(-c3cc(Cl)ccc3C)c2=O)cc1`: 1060 s; `Fc1ccc(-c2noc(-c3nnc(NCCN4CCOCC4)c4ccccc34)n2)cc1`: 701 s; `CC(NC(=O)NC1CCCCC1)C(c1cccs1)N1CCN(C)CC1` (centres undefined): 573 s.
Next, `O=C(c1csc(N2CCN(c3cccc(Cl)c3)CC2)n1)N1CCOCC1`: 970 s; `Clc1ccccc1-c1csc(Cc2nc(-c3ccc4c(c3)OCO4)no2)n1`: 1200 s.
Compound `COc1ccccc1-c1noc(-c2nnn3c2COC(c2ccc(C)cc2C)C3)n1` (centres undefined) came in with an RP-LC retention time of 1250 s.
In the case of `COc1ccc(C)cc1NC(=O)N1CCCC1c1nc(-c2ccccc2OC)no1` (centres undefined), the RP-LC retention time was 940 s.
The compound `Cc1ccc(NC(=O)CCC2CCN(c3cc(NC4CC4)ncn3)CC2)c(C)c1` displayed an RP-LC retention time of 714 s.
Next, `O=C(NC1CCCCC1)C1CCN(c2nc3ccc(-c4cncnc4)nc3s2)CC1`: 830 s; `CCOc1cc(-c2ccc(F)cc2)nc2ccc(NC(=O)C3CC3)cc12`: 721 s; `COc1ccc(-c2c(C)noc2NC(C)=O)cc1S(=O)(=O)Nc1ccccc1F`: 783 s.
Turning to `Cc1ccc(C(=O)N2CCN(c3cc(-c4cccs4)[nH]n3)CC2)c(C)c1`, the RP-LC retention time is 831 s.
With `CCN1CCN(CCNC(=O)CCCN2C(=O)CCn3nc(-c4cccn4C)cc32)CC1`, the RP-LC retention time amounted to 575 s.
Next, `CN1C(=O)c2cc(C(=O)N3CCC(C(N)=O)CC3)nn2CC1(C)C(=O)NC1CCCC1` (centres undefined): 888 s; `O=c1c2oc3ccccc3c2ncn1Cc1nc(-c2ccc(F)c(Cl)c2)no1`: 1050 s; `O=C(Cn1cnc(-c2cccs2)cc1=O)Nc1ccc(-n2cnnn2)cc1`: 660 s.
The result for `Cc1ccc(NC(=O)CCNc2cnc3cnccn23)cc1F` reads 578 s.
The result for `Cc1ccc(NC(=O)c2cc(C(C)C)n(C3CCS(=O)(=O)C3)n2)cc1C` (centres undefined) reads 949 s.
In turn, `CCCN1CCN(CCCNC(=O)C2CCN(Cc3cn(C)c4ccc(Cl)cc34)CC2)CC1` displayed an RP-LC retention time of 541 s.
The result for `O=C(CSc1nnc2ccccn12)Nc1nc(-c2ccccc2)ns1` reads 695 s; that for `O=C(C(=O)N1CCN(c2ccc(F)cc2)CC1)c1ccc[nH]1`, 753 s.
Compound `Cc1ccc(-n2nc(N3CCCN(S(=O)(=O)c4ccccc4F)CC3)ccc2=O)cc1C` came in with an RP-LC retention time of 914 s.
In the case of `Oc1cccc2ccc(N3CCOCC3)nc12`, the RP-LC retention time amounted to 547 s.
`CS(=O)(=O)N(C1CCOCC1)C1CN(C(=O)Nc2ccc(F)cc2F)C1`: the RP-LC retention time is 664 s.
With `Cc1ccc(CCNC(=O)c2nc(N3CCOCC3)c3ccccc3n2)cc1`, the RP-LC retention time turned out to be 729 s.
`COc1cccc2sc(N3CCN(c4ccccc4)CC3)nc12`: the RP-LC retention time worked out at 996 s.
